According to patent US11407771B2 (priority 2018, dated 2022):

Biological target: MAPK13 (Homo sapiens (Human), UniProt O15264)
Conditions: read-out: MAPK13 IC50

MAPK13, sequence (O15264 whole entry): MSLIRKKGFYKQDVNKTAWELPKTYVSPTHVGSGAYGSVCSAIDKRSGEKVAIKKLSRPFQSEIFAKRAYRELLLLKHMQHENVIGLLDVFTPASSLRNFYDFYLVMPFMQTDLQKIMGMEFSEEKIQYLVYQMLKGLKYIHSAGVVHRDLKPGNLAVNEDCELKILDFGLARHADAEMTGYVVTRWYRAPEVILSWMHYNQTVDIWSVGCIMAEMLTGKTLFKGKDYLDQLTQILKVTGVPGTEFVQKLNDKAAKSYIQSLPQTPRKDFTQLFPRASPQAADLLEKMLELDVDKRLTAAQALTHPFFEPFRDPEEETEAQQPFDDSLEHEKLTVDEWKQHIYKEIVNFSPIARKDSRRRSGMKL

`Cc1ccc(-n2nc(C(C)(C)C)cc2NC(=O)Nc2ncc(CCc3ccnc(NC(=O)C4CC4)c3)s2)cc1` [Compound 331, Cyclopropanecarboxylic acid [4-(2-{2-[3-(5-tert-butyl-2-p-tolyl-2H-pyrazol-3-yl)-ureido]-thiazol-5-yl}ethyl)-pyridin-2-yl]-amide] and `CC(=O)Nc1cc(Oc2ccc(NC(=O)Nc3cc(C(C)(C)C)no3)c(F)c2)ccn1` [Compound 395, N-(4-{4-[3-(3-tert-Butyl-isoxazol-5-yl)-ureido]-3-fluoro-phenoxy}-pyridin-2-yl)-acetamide] are the same in IC50: 11 nM for the first, 11 nM for the second.

Same assay, conditions: read-out: MAPK13 inhibition

`CC(C)(C)c1ccc(Cl)c(NC(=O)Nc2ccc(Oc3ccnc(NC(=O)CO)c3)cc2F)c1` [Compound 426, N-(4-{4-[3-(5-tert-Butyl-2-chloro-phenyl)-ureido]-3-fluoro-phenoxy}-pyridin-2-yl)-2-hydroxy-acetamide] and `COCCC(=O)Nc1cc(Oc2ccc(NC(=O)Nc3cc(C(C)(C)C)ccc3Cl)c(F)c2)ccn1` [Compound 427, N-(4-{4-[3-(5-tert-Butyl-2-chloro-phenyl)-ureido]-3-fluoro-phenoxy}-pyridin-2-yl)-3-methoxy-propionamide] cannot be ordered by IC50: less than 250 nM for the first, less than 250 nM for the second.

`COCCC(=O)Nc1cc(Oc2ccc(NC(=O)Nc3cc(C4CC4)ccc3F)c(F)c2)ccn1` [Compound 425, N-(4-{4-[3-(5-Cyclopropyl-2-fluoro-phenyl)-ureido]-3-fluoro-phenoxy}-pyridin-2-yl)-3 methoxypropionamide] and `O=C(CO)Nc1cc(Oc2ccc(NC(=O)Nc3cc(C4CC4)ccc3F)c(F)c2)ccn1` [Compound 424, N-(4-{4-[3-(5-Cyclopropyl-2-fluoro-phenyl)-ureido]-3-fluoro-phenoxy}-pyridin-2-yl)-2-hydroxy-acetamide] cannot be ordered by IC50: less than 250 nM for the first, less than 250 nM for the second.

Compared with `CC(=O)Nc1cc(Oc2ccc(NC(=O)Nc3cc(C(C)(C)C)nn3C(C)C)c(F)c2)ccn1` [Compound 392, N-(4-{4-[3-(5-tert-Butyl-2-isopropyl-2H-pyrazol-3-yl)-ureido]-3-fluoro-phenoxy}-pyridin-2-yl)-acetamide], `CC(=O)Nc1cc(CCc2ccc(NC(=O)Nc3cc(C(C)(C)C)nn3C(C)C)c(F)c2)ccn1` [Compound 371, N-[4-(2-{4-[3-(5-tert-Butyl-2-isopropyl-2H-pyrazol-3-yl)-ureido]-3-fluoro-phenyl}-ethyl)-pyridin-2-yl]-acetamide] is higher in IC50: less than 250 nM for the first, greater than 1000 nM for the second. The first is the more potent here.

Going from `COC(=O)Nc1cc(Oc2ccc(NC(=O)Nc3cc(C4(C)COC4)nn3-c3ccc(C)cc3)cc2)ccn1` [Compound 261, [4-(4-{3-[5-(3-Methyl-oxetan-3-yl)-2-p-tolyl-2H-pyrazol-3-yl]-ureido}-phenoxy)-pyridin-2-yl]-carbainic acid methyl ester] to `COC(=O)Nc1cc(CCc2ccc(NC(=O)Nc3cc(C(C)(C)C)nn3-c3ccc(C)cc3)c(F)c2)ccn1` [Compound 315, [4-(2-{4-[3-(5-tert-Butyl-2-p-tolyl-2H-pyrazol-3-yl)-ureido]-3-fluoro-phenyl}-ethyl)-pyridin-2-yl]-carbamic acid methyl ester], the IC50 rises from less than 250 nM to greater than 1000 nM.

`CC(=O)Nc1cc(CCc2cnc(NC(=O)Nc3cc([Si](C)(C)C)ccc3F)s2)ccn1` [Compound 400, N-[4-(2-{2-[3-(2-Fluoro-5-trimethylsilanyl-phenyl)-ureido]-thiazol-5-yl}-ethyl)-pyridin-2-yl]-acetamide] and `CCNC(=O)Nc1cc(CCc2cnc(NC(=O)Nc3cc(C(C)(C)C)nn3C)s2)ccn1` [Compound 352, 1-[4-(2-{2-[3-(5-tert-Butyl-2-methyl-2H-pyrazol-3-yl)-ureido]-thiazol-5-yl}ethyl)-pyridin-2-yl]-3-ethyl-urea] cannot be ordered by IC50: less than 250 nM for the first, less than 250 nM for the second.

`Cc1ccc(-n2nc(C(C)(C)C)cc2NC(=O)Nc2ccc(Oc3ccncc3C)cc2F)cc1` [Compound 300, 1-(5-tert-Butyl-2-p-tolyl-2H-pyrazol-3-yl)-3-[2-fluoro-4-(3-methyl-pyridin-4-yloxy)-phenyl]-urea] and `CC(C)(C)c1cc(NC(=O)Nc2ccc(Oc3ccnc(N)c3)cc2F)n(-c2cccc(F)c2)n1` [Compound 304, 1-[4-(2-Amino-pyridin-4-yloxy)-2-fluoro-phenyl]-3-[5-tert-butyl-2-(3-fluoro-phenyl)-2H-pyrazol-3-yl]-urea] cannot be ordered by IC50: less than 250 nM for the first, less than 250 nM for the second.

Going from `CC(C)(C)c1ccc(Cl)c(NC(=O)Nc2ncc(CCc3ccncc3)s2)c1` [Compound 388, 1-(5-tert-Butyl-2-chloro-phenyl)-3-[5-(2-pyridin-4-yl-thiazol)-thiazol-2-yl]-urea] to `Cc1ccc(-n2nc(C3(C)CSC3)cc2NC(=O)Nc2ncc(CCc3ccncc3)s2)cc1` [Compound 273, 1-[5-(3-Methyl-thietan-3-yl)-2-p-tolyl-2H-pyrazol-3-yl]-3-[5-(2-pyridin-4-yl-ethyl)-thiazol-2-yl]-urea], the IC50 falls from greater than 1000 nM to less than 250 nM.

`Cc1ccc(-n2nc(C(C)(C)C)cc2NC(=O)Nc2ncc(CCc3ccnc(NC(=O)C4CC4)c3)s2)cc1` [Compound 331, Cyclopropanecarboxylic acid [4-(2-{2-[3-(5-tert-butyl-2-p-tolyl-2H-pyrazol-3-yl)-ureido]-thiazol-5-yl}ethyl)-pyridin-2-yl]-amide] and `Cc1ccc(-n2nc(C(C)(C)C)cc2NC(=O)Nc2ncc(CCc3ccnc(NC(=O)C4CCOCC4)c3)s2)cc1` [Compound 288, Tetrahydro-pyran-4-carboxylic acid [4-(2-{2-[3-(5-tert-butyl-2-p-tolyl-2H-1-pyrazol-3-yl)-ureido]-thiazol-5-yl}-ethyl)-pyridin-2-yl]-amide] cannot be ordered by IC50: less than 250 nM for the first, less than 250 nM for the second.

`CC(=O)Nc1cc(Oc2ccc(NC(=O)Nc3cc(C4CC4)ccc3Cl)c(F)c2)ccn1` [Compound 423, N-(4-{4-[3-(2-Chloro-5-cyclopropyl-phenyl)-ureido]-3-fluoro-phenoxy}-pyridin-2-yl)-acetamide] and `CC(=O)Nc1cc(Oc2ccc(NC(=O)Nc3cc(C(C)(C)C)no3)c(F)c2)ccn1` [Compound 395, N-(4-{4-[3-(3-tert-Butyl-isoxazol-5-yl)-ureido]-3-fluoro-phenoxy}-pyridin-2-yl)-acetamide] cannot be ordered by IC50: less than 250 nM for the first, less than 250 nM for the second.

First: CC(=O)Nc1cc(CCc2ccc(NC(=O)Nc3cc(C(C)(C)C)nn3CC3CC3)c(F)c2)ccn1 [Compound 370, N-[4-(2-{4-[3-(5-tert-Butyl-2-cyclopropylmethyl-2H-pyrazol-3-yl)-ureido]-3-fluoro-phenyl}-ethyl)-pyridin-2-yl]-acetamide]
Second: CC(C)(C)c1cc(NC(=O)Nc2ccc(Oc3ccncc3)cc2F)n(CC2CC2)n1 [Compound 310, 1-(5-tert-Butyl-2-cyclopropylmethyl-2H-pyrazol-yl)-3-[2-fluoro-4-(pyridin-4-yloxy)-phenyl]-urea]
The IC50 of the first is higher: greater than 1000 nM for the first, less than 250 nM for the second.

`CCNC(=O)Nc1cc(CCc2cnc(NC(=O)Nc3cc(C(C)(C)C)nn3-c3ccc(C)cc3)s2)ccn1` [Compound 284, 1-[4-(2-{2-[3-(5-tert-Butyl-2-p-tolyl-2H-pyrazol-3-yl)-ureido]-thiazol-5-yl}-ethyl)-pyridin-2-yl]-3-ethyl-urea] and `CC(C)(C)c1cc(NC(=O)Nc2ncc(CCc3ccnc(NC(=O)C4CC4)c3)s2)n(-c2ccc(Cl)cc2)n1` [Compound 390, N-[4-[2-[2-[[5-tert-butyl-2-(4-chlorophenyl)pyrazol-3-yl]carbamoylamino]thiazol-5-yl]ethyl]-2-pyridyl]cyclopropanecarboxamide] cannot be ordered by IC50: less than 250 nM for the first, less than 250 nM for the second.

`COCC(=O)Nc1cc(CCc2cnc(NC(=O)Nc3cc(C(C)(C)C)nn3C)s2)ccn1` [Compound 350, N-[4-(2-{2-[3-(5-tert-Butyl-2-methyl-2H-pyrazol-3-yl)-ureido]-thiazol-5-yl}-ethyl)-pyridin-2-yl]-2-methoxy-acetamide] and `Cn1nc(C(C)(C)C)cc1NC(=O)Nc1ncc(CCc2ccnc(NC(=O)C3CC3)c2)s1` [Compound 345, Cyclopropanecarboxylic acid [4-(2-{2-[3-(5-tert-butyl-2-methyl-2H-pyrazol-3-yl)-ureido]-thiazol-5-yl}-ethyl)-pyridin-2-yl]-amide] cannot be ordered by IC50: less than 250 nM for the first, less than 250 nM for the second.
